According to patent US20110059953A1, “COMPOUNDS FOR USE IN STABILIZING P53 MUTANTS” (priority 2008, published 2011):

How the values were obtained:
T-p53C-Y220C [1] = molecular target: T1, T-p53C-Y220C (Homo sapiens, UniProt P04637, M133L/N239Y/N268D/V203A/Y220C); test: Thermal denaturation using capillary DSC; format: binding; settings: increase in Tm on adding 250 μM of the test compound; 20 μM protein
T1 construct: For all other experiments, the DNA coding for residues 94-312 of T-p53C was inserted into a modified pET24a(+) vector; 6xHis tag + B. stearothermophilus dihydrolipoyl acetyltransferase lipoyl domain (aa 1-85) + TEV site (N, cleaved yes); made in house; host or cells: Escherichia coli BL21 (DE3) or C41 (DE3)
Description: Differential Scanning calorimetry (DSC) was used to probe the stabilising effect of the ligands on […]. For a reversible two-state system, the melting temperature, Tm, is the transition temperature where the folded and unfolded states are equally populated.
DSC experiments were performed using a Microcal VP-Capillary DSC instrument (Microcal, Amherst, Mass.) with an active cell volume of ˜125 μl. Protein samples were buffer exchanged into 25 mM NaPi, pH 7.2, 150 mM NaCl, 5 mM DTT. This buffer + the respective concentration of ligand/DMSO was used for baseline scans, so that the only difference between sample and reference cell or sample cell in the measurement and both cells in the baseline scan is the presence of the protein. A final concentration of 20 μM T-p53C-Y220C was used. A pressure of 2.5 bars (nitrogen) was applied to the cell. Temperatures from 10 to 85° C. were scanned at a rate of 250° C./h, with a filtering period of 4 seconds and feedback gain/mode set at medium. Data were analysed with ORIGIN software (Microcal).
The following tables show the results of the thermal denaturation studies using capillary DSC, where ΔTm is the increase in Tm on adding 250 μM of the test compound. The Dunnett significance test (P) value given is the calculated probability that the change in Tm is insignificant.

T-p53C-Y220C [2] = molecular target: T1, T-p53C-Y220C; test: Thermal denaturation using fluorescence (Sypro Orange); format: binding; settings: 10 μM protein
Description: This was by an adaption of the classical procedure (e.g. ref A6). Thermal unfolding was monitored by the binding of the dye Sypro Orange (5×) using a Rotor-gene 6000 (Corbett Life Science) at 270 K/h in 25 mM NaPi, 150 mM NaCl and 5 mM DTT, pH 7.2 with a protein concentration of 10 μM.
(§1) Where listed, S.E. is the calculated standard error.
as §1

[3] = further studies on compounds described above

| Compound | ΔTm (T-p53C-Y220C [1]) [°C] | ΔTm (° C.) (T-p53C-Y220C [2]; [3]) [°C] | ΔTm (° C.) (T-p53C-Y220C [2]; further compounds) [°C] |
| --- | --- | --- | --- |
| CCn1c2ccccc2c2cc(NC(=S)Nc3cc(S(=O)(=O)N(C)C)ccc3C)ccc21 [PK102] | 0.37 | 0.37 | – |
| CCn1c2ccccc2c2cc(NC(=O)COC(=O)c3cc(C(=O)OC)cc([N+](=O)[O-])c3)ccc21 [PK137] | 0.29 | 0.3 | – |
| CCn1c2ccccc2c2cc(NC(=O)CN3C(=O)NC(C)(c4ccc(OC)cc4)C3=O)ccc21 (centres unmarked) [PK160] | 0.42 | 0.42 | – |
| CCn1c2ccccc2c2cc(CN3CCCC(N4CCOCC4)C3)ccc21 (centres unmarked) [PK225] | 0.53 | 0.55 | – |
| CCn1c2ccccc2c2cc(CNCCc3c[nH]c4ccccc34)ccc21 [PK193] | 0.3 | 0.3 | – |
| CCn1c2ccccc2c2cc(CN3CCNCC3)ccc21 [PK198] | 0.25 | 0.25 | – |
| CCN(CCN(C)C)Cc1ccc2c(c1)c1ccccc1n2CC [PK189] | 0.23 | 0.23 | – |
| CCn1c2ccccc2c2cc(NC(=O)C(C)OC(=O)c3ccc(-n4cnnn4)cc3)ccc21 (centres unmarked) [PK134] | 0.4 | 0.4 | – |
| CCn1c2ccccc2c2cc(NC(=O)C(C)Sc3nc(N)cc(=O)[nH]3)ccc21 (centres unmarked) [PK143] | 0.24 | 0.24 | – |
| CCn1c2ccccc2c2cc(NC(=O)COC(=O)c3ccc(NC(=O)CC#N)cc3)ccc21 [PK140] | 0.51 | 0.513 | – |
| CCn1c2ccccc2c2cc(CN3CCC(n4cc(C(=O)NCCO)nn4)CC3)ccc21 [PK221] | 0.52 | 0.54 | – |
| CCn1c2ccccc2c2cc(NC(=O)CCc3c(C)[nH]c(=O)c(C#N)c3C)ccc21 [PK141] | 0.48 | 0.48 | – |
| CCn1c2ccccc2c2cc(NC(=O)Cc3ccc(S(=O)(=O)N4CCOCC4)s3)ccc21 [PK115] | 0.49 | 0.49 | – |
| CCCN1CCN(C(C)C(=O)Nc2ccc3c(c2)c2ccccc2n3CC)CC1 (centres unmarked) [PK142] | 0.26 | 0.26 | – |
| CCn1c2ccccc2c2cc(NC(=O)c3ccc(OCC(N)=O)cc3)ccc21 [PK166] | 0.64 | 0.64 | – |
| CCn1c2ccccc2c2cc(CN3CCC4(CC3)CC4C(=O)NCCc3ccccn3)ccc21 (centres unmarked) [PK220] | 0.64 | 0.68 | – |
| CCn1c2ccccc2c2cc(NC(C)C(=O)NC(N)=O)ccc21 (centres unmarked) [PK158] | 0.63 | 0.63 | – |
| CCn1c2ccccc2c2cc(NC(=O)C(C)OC(=O)c3ccc([N+](=O)[O-])o3)ccc21 (centres unmarked) [PK119] | 0.48 | 0.48 | – |
| CCn1c2ccccc2c2cc(CN3CCN(C)C(CCO)C3)ccc21 (centres unmarked) [PK217] | 0.47 | 0.493 | – |
| CCn1c2ccccc2c2cc(NC(=O)CN3C(=O)NC(C)(c4ccc(C)cc4)C3=O)ccc21 (centres unmarked) [PK110] | 0.37 | 0.37 | – |

| Compound | ΔTm (T-p53C-Y220C [1]) [°C] | ΔTm (° C.) (T-p53C-Y220C [2]; [3]) [°C] | ΔTm (° C.) (T-p53C-Y220C [2]; further compounds) [°C] |
| --- | --- | --- | --- |
| CCn1c2ccccc2c2cc(NC(=O)CN3C(=O)c4ccccc4S3(=O)=O)ccc21 [PK117] | 0.47 | 0.47 | – |
| CCn1c2ccccc2c2cc(NC(=O)COC(=O)Cn3cnc4c3c(=O)n(C)c(=O)n4C)ccc21 [PK114] | 0.39 | 0.39 | – |
| CCn1c2ccccc2c2cc(NC(=O)CN(CC(N)=O)C(C)C)ccc21 [PK161] | 0.47 | 0.46 | – |
| COc1ccc(N2CCN(Cc3cc4c(cc3O)[nH]c3ccccc34)CC2)cc1 [PK144] | 0.51 | 0.51 | – |
| CCn1c2ccccc2c2cc(NC(=O)C(C)N3CCN(CC(N)=O)CC3)ccc21 (centres unmarked) [PK152] | 0.22 | 0.22 | – |
| CCn1c2ccccc2c2cc(NC(=O)COC(=O)c3ccc(-n4cnnn4)cc3)ccc21 [PK138] | 0.54 | 0.54 | – |
| CCn1c2ccccc2c2cc(NC(=O)CSc3nccc(=O)[nH]3)ccc21 [PK095] | 0.39 | – | – |
| CCn1c2ccccc2c2cc(CN(C)C3CCN(C)CC3)ccc21 [PK178] | 0.5 | 0.34 | – |
| [2H]C(=O)OC(C)c1nc(N)nc(N(C)C)n1 (centres unmarked) [PK286] | – | – | 0.24 |
| CCn1c2ccccc2c2cc(NC(=O)CN3CCOCC3)ccc21 [PK128] | – | – | 0.24 |
| CCn1c2ccccc2c2cc(CNCCCn3cc(C(=O)N4CCOCC4)nn3)ccc21 [PK219] | 0.85 | 0.873 | – |
| [2H]C(=O)OCC(=O)NC(=O)NCC [PK266] | – | – | 0.18 |
| CCn1c2ccccc2c2cc(CN3CCC(N4CCCCC4)CC3)ccc21 [PK188] | 0.39 | 0.39 | – |
| CCNC(=S)Nc1ccc2c(c1)c1ccccc1n2CC [PK168] | 0.41 | 0.4 | – |
| [2H]C(=O)Nc1ccc(OC)c(S(N)(=O)=O)c1 [PK292] | – | – | 0.154 |
| CCn1c2ccccc2c2cc(CN3CCN(C)CC3)ccc21 [PK177] | – | – | 0.2 |
| CCOC(=O)c1c(C)n(CC)c2ccc(OC(=O)Nc3ccc(Cl)cc3)cc12 [PK246] | – | – | 0.31 |
| CCn1cc(C(=O)OCC(=O)NC(=O)NCc2ccco2)c2ccccc21 [PK273] | – | – | 0.28 |
| CCn1c(C)c(C(=O)NCCN(C)C)c2cc(OC)ccc21 [PK402] | – | – | 0.19 |
| CCn1c2ccccc2c2cc(CN3CCN(S(=O)(=O)c4ccccc4)CC3)ccc21 [PK215] | – | – | 0.17 |

| Compound | ΔTm (T-p53C-Y220C [1]) [°C] | ΔTm (° C.) (T-p53C-Y220C [2]; [3]) [°C] | ΔTm (° C.) (T-p53C-Y220C [2]; further compounds) [°C] |
| --- | --- | --- | --- |
| CCn1c2ccccc2c2cc(CN3CCc4ccccc4C3)ccc21 [PK176] | – | – | 0.455 |
| CCn1cc(C(=O)Nc2cccc(S(=O)(=O)N(C)C)c2)c2ccccc21 [PK272] | – | – | 0.44 |
| CCn1c(-c2cn(CC)c3ccccc23)n[nH]c1=S [PK236] | – | – | 0.3 |
| CCn1cc(C(=O)NCc2cccc(S(=O)(=O)N3CCOCC3)c2)c2ccccc21 [PK306] | – | – | 0.26 |
| CCn1cc(C(=O)OC)c2ccccc21 [PK339] | – | – | 0.4 |
| CCn1c2ccccc2c2cc(NC(=O)C(C)OC(=O)c3n[nH]c(=O)c4ccccc34)ccc21 (centres unmarked) [PK133] | – | – | 0.145 |
| CCn1cc(C(=O)NCc2cccc(NC(=O)c3ccco3)c2)c2ccccc21 [PK314] | – | – | 0.16 |
| CCn1cc(C(=O)Nc2c(C)nn(C)c2C)c2ccccc21 [PK313] | – | – | 0.28 |
| CCn1c2ccccc2c2cc(CN(C)C(=O)c3nccnc3N)ccc21 [PK164] | 0.51 | 0.51 | – |
| CCn1c2ccccc2c2cc(CNCCc3ccccc3)ccc21 [PK194] | 0.38 | 0.38 | – |
| CCn1c2ccccc2c2cc(NC(=O)CCCC(=O)O)ccc21 [PK135] | – | – | 0.083 |
| Cc1ccc(CN2C[C@@H]3C[C@@H](C)N4CCC[C@@]34C2=O)o1 [PK223] | 0.38 | 0.40 | – |
| CCn1c2ccccc2c2cc(NC(=O)C3=COCCO3)ccc21 [PK153] | – | – | 0.16 |
| [2H]C(=O)N1CCN(c2ncccn2)CC1 [PK283] | – | – | 0.19 |
| CCn1c2ccccc2c2cc(CNCCSc3nnnn3C)ccc21 [PK390] | – | – | 0.41 |
| COc1ccc2c(c1)c(C(=O)NCCc1ccccn1)c(C)n2C1CC1 [PK276] | – | – | 0.29 |
| CCn1cc(C(=O)Nc2ccn(C)n2)c2ccccc21 [PK318] | – | – | 0.12 |
| Cc1c(C=O)c2ccccc2n1C [PK243] | – | – | 0.2 |
| CCn1cc(C=C(C#N)C(N)=O)c2ccccc21 [PK240] | – | – | 0.2 |
